Measured values as given in patent US20170114049A1, “2,5-DISUBSTITUTED CYCLOPENTANE CARBOXYLIC ACIDS FOR THE TREATMENT OF RESPIRATORY TRACT DISEASES” (BAYER PHARMA AKTIENGESELLSCHAFT, priority 2014, published 2017).
pIC50: −log10 of the molar value.

How the values were obtained:
Assay type in all cases: biochemical
mouse MMP-3 = molecular target: T1, mouse MMP-3 (Mus musculus, UniProt P28862); assay: In vitro mouse MMP-3 inhibition test
T1 construct: purchased R&D Systems 548-MP

MMP-7 = molecular target: T2, MMP-7 (Homo sapiens, UniProt P09237); assay: In vitro MMP-7 inhibition test
T2 construct: purchased R&D Systems 907-MP
T2 sequence (P09237 95-267): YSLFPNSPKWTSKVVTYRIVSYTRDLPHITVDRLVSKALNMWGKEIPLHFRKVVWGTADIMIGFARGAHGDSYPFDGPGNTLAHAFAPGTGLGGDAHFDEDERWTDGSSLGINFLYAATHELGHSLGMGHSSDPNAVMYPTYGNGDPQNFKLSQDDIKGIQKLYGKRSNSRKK
Source text: (§1) The MMP-mediated amidolytic cleavage of a suitable peptide substrate leads to an increase in fluorescent light here too. The signal intensity of the fluorescent light is directly proportional to the enzyme activity. The active concentration of a test compound at which half the enzyme is inhibited (50% signal intensity of the fluorescent light) is reported as the […].
(§2) Recombinant MMP-7 (from R&D Systems, 907-MP) is chemically activated in accordance with the manufacturer's instructions using APMA. 1 μl of the test compound to be analysed (as a solution in DMSO, suitable concentrations, for example, 1 nM to 30 μM) is pipetted into 24 μl of activated enzyme (final concentration, for example, 0.5 nM) in reaction buffer (50 mM Tris/HCl pH 7.5, 10 mM CaCl2, 150 mM NaCl, 0.05% Brij®-35) in a white 384-hole microtiter plate (MTP). The enzymatic reaction is started by adding the intramolecularly quenched Mca-Pro-Leu-Gly-Leu-Dpa(Dnp)-Ala-Arg-NH2 substrate (final concentration, for example, 10 μM; R&D Systems, ES-001), so as to result in a total test volume of 50 μl. The course of the MMP-7 reaction is measured by measuring the fluorescence intensity (excitation 320 nm, emission 410 nm) over a suitable period of time (for example over 120 min at a temperature of 32° C.).

MMP-14 = molecular target: T3, MMP-14 (Homo sapiens, UniProt P50281); assay: In vitro MMP-14 inhibition test
T3 construct: purchased R&D Systems 918-MP
Source text: as §1
Recombinant MMP-14 (from R&D Systems, 918-MP) is enzymatically activated in accordance with the manufacturer's instructions using recombinant furin (from R&D Systems, 1503-SE). 1 μl of the test compound to be analysed (as a solution in DMSO, suitable concentrations e.g. 1 nM to 30 μM) is pipetted into 24 μl of activated enzyme (final concentration e.g. 0.5 nM) in reaction buffer (50 mM Tris/HCl pH 7.5, 10 mM CaCl2, 150 mM NaCl, 0.05% Brij®-35) in a white 384-hole microtiter plate (MTP). The enzymatic reaction is started by adding the intramolecularly quenched Mca-Lys-Pro-Leu-Gly-Leu-Dpa(Dnp)-Ala-Arg-NH2 substrate (final concentration, for example, 5 μM; R&D Systems, ES-010), so as to result in a total test volume of 50 μl. The course of the MMP-14 reaction is measured by measuring the fluorescence intensity (excitation 320 nm, emission 410 nm) over a suitable period of time (for example over 120 min at a temperature of 32° C.).

mouse MMP-8 = molecular target: T4, mouse MMP-8 (Mus musculus, UniProt O70138); assay: In vitro mouse MMP-8 inhibition test
T4 construct: purchased R&D Systems 2904-MP
T4 sequence (O70138 101-465): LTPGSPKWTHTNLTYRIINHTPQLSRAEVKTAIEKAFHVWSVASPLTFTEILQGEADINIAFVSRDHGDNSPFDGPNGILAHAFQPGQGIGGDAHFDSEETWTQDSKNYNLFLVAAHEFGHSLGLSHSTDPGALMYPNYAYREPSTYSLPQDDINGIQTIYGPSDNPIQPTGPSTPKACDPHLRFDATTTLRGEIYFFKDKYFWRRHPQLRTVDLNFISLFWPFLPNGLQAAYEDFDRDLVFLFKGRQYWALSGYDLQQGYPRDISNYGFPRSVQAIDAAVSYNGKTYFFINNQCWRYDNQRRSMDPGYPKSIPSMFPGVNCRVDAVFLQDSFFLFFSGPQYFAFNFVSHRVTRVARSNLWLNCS

mouse MMP-12 = molecular target: T5, mouse MMP-12 (Mus musculus, UniProt P34960); assay: In vitro mouse MMP-12 inhibition test (standard or high-sensitivity)
T5 construct: purchased R&D Systems 3467-MP
T5 sequence (P34960 110-473): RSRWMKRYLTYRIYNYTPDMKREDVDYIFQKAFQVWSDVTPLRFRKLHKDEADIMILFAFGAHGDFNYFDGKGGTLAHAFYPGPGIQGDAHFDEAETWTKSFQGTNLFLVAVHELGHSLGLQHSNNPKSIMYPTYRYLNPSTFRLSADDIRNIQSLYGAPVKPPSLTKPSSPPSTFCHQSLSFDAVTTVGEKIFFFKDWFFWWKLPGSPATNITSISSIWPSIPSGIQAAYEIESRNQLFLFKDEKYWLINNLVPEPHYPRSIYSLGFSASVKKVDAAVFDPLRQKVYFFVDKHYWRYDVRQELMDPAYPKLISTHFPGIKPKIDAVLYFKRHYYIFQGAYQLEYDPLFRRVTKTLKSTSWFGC
Source text: as §1
Recombinant mouse MMP-12 (from R&D Systems, 3467-MP) is autocatalytically activated in accordance with the manufacturer's instructions. 1 μl of the test compound to be analysed (as a solution in DMSO, suitable concentrations, for example, 1 nM to 30 μM) is pipetted into 24 μl of activated enzyme (final concentration, for example, 1 nM) in reaction buffer (50 mM Tris/HCl pH 7.5, 10 mM CaCl2, 150 mM NaCl, 0.05% Brij®-35) in a white 384-hole microtiter plate (MTP). The enzymatic reaction is started by adding the intramolecularly quenched Mca-Lys-Pro-Leu-Gly-Leu-Dpa(Dnp)-Ala-Arg-NH2 substrate (final concentration, for example, 5 μM; R&D Systems, ES-010), so as to result in a total test volume of 50 μl. The course of the MMP-12 reaction is measured by measuring the fluorescence intensity (excitation 320 nm, emission 410 nm) over a suitable period of time (for example over 120 min at a temperature of 32° C.).
In this case, an enzyme concentration ten times lower is used (final concentration, for example, 0.1 nM) in order to achieve an elevated test sensitivity. The incubation period chosen for the test is correspondingly longer (for example 16 hours).

[1] = molecular target: T6, human macrophage elastase (HME/hMMP-12) (Homo sapiens, UniProt P39900); assay: In vitro HME inhibition test in the presence of serum albumin (BSA) in the reaction buffer; conditions: presence of serum albumin (BSA) 2% (w/w)
T6 construct: 0.5 nM HME; purchased R&D Systems 917-MP
T6 sequence (P39900 106-470): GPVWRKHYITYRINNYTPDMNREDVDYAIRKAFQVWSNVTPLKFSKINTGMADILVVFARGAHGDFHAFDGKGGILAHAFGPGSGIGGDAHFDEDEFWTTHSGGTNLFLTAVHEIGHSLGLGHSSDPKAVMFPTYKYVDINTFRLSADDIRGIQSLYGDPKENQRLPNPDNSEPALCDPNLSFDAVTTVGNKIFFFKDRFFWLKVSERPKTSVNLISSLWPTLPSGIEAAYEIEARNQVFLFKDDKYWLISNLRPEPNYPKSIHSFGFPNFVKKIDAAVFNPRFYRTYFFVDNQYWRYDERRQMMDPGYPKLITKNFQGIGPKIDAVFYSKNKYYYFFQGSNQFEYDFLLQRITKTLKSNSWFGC
Source text: This test corresponds to the standard HME inhibition test described above, except using a modified reaction buffer. This reaction buffer additionally contains bovine serum albumin (BSA, fatty acid-free, A6003, from Sigma-Aldrich) of final concentration 2% (w/w), which corresponds to about half the physiological serum albumin content.

MMP-9 = molecular target: T7, MMP-9 (Homo sapiens, UniProt P14780); assay: In vitro MMP-9 inhibition test
T7 construct: purchased R&D Systems 911-MP
T7 sequence (P14780 107-707 limits assumed): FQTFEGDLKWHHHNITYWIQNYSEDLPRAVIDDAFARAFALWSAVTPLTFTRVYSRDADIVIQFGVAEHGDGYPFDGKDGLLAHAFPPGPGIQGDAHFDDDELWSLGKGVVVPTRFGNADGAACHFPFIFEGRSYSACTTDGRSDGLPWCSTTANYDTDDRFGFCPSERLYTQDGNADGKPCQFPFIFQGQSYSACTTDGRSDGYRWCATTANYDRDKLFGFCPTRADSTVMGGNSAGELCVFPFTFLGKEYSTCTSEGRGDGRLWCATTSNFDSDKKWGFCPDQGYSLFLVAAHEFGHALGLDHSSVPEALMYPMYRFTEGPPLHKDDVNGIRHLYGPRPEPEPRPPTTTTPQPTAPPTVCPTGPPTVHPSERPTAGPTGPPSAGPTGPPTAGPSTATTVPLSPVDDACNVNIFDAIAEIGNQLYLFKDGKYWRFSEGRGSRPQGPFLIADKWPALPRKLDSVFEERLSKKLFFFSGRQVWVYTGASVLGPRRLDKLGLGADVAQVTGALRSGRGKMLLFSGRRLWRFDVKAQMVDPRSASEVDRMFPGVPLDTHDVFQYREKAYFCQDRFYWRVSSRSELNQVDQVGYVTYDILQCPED

MMP-10 = molecular target: T8, MMP-10 (Homo sapiens, UniProt P09238); assay: In vitro MMP-10 inhibition test
T8 construct: purchased R&D Systems 910-MP
T8 sequence (P09238 99-476): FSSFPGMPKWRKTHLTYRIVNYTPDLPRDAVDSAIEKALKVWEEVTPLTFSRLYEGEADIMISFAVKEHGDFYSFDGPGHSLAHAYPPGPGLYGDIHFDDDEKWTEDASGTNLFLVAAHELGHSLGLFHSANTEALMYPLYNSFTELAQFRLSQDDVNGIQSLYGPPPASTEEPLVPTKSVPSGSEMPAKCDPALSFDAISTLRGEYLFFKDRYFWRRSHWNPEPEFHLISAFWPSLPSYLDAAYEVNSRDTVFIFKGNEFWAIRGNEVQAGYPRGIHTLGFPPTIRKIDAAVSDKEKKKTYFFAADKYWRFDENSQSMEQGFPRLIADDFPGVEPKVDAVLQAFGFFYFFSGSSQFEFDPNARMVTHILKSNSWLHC
Source text: as §1
as §2, with “MMP-10” for “MMP-7”, “910-MP)” for “907-MP)”, “2” for “0.5”, “Mca-Arg-Pro-Lys-Pro-Val-Glu-Nval-Trp-Arg-Lys(Dnp)-NH2” for “Mca-Pro-Leu-Gly-Leu-Dpa(Dnp)-Ala-Arg-NH2”, “ES-002),” for “ES-001),”

T1 sequence (P28862 100-477): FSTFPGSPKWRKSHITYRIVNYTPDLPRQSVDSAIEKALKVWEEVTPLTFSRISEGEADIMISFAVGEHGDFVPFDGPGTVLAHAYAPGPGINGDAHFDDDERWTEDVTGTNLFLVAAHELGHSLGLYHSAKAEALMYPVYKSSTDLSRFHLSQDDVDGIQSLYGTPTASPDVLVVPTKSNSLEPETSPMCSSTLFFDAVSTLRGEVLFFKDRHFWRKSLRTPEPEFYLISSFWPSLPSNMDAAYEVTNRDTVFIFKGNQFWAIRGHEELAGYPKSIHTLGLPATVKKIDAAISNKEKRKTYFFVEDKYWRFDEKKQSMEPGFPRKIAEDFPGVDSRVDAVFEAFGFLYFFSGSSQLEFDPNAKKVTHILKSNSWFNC

Molecule `O=C(O)[C@H]1[C@H](Cn2nnc3ccccc3c2=O)CC[C@@H]1C(=O)c1ccc(OCCC2CCOCC2)cc1` (stereo in doubt) [Example 4, (+/−)-(1RS,2SR,5RS)-2-[(4-Oxo-1,2,3-benzotriazin-3(4H)-yl)methyl]-5-{4-[2-(tetrahydro-2H-pyran-4-yl)ethoxy]benzoyl}cyclopentanecarboxylic acid] has a pIC50 (mouse MMP-3) of 5.40, a pIC50 (MMP-7) of 5.49 and a pIC50 (MMP-14) of 5.57. For the same molecule, the pIC50 (mouse MMP-8) was 6.43, the pIC50 (mouse MMP-12) was 8.11 and the pIC50 [1] was 7.43. The pIC50 (MMP-9) was 5.30 and the pIC50 (MMP-10) was 6.77.
